Results reported in PubChem BioAssay AID2060490 (Molecular Pharmacology Branch, DTP, NCI, 2025).

System: 885512-296-R-J2-PDC complex spheroid viability
Assay: Anticancer human tumor 885512-296-R-J2-PDC patient-derived breast carcinoma cell line growth inhibition [GQUAD]
Conditions: for IC50: curve of first compound; for viability, T/C: stronger effect = lower value
Procedure, shortened: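 Tumor cells were grown as complex spheroids with HUVEC endothelial cells and mesenchymal stem cells as stroma. G-quadruplex stabilizers were combined with targeted agents over half-log dilutions from near the clinical Cmax, or from 10 microM.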

[1] = second compound 0.0316 µM, first compound 0.0316 µM
[2] = second compound 0.0316 µM, first compound 0.1 µM
[3] = second compound 0.0316 µM, first compound 0.316 µM
[4] = second compound 0.0316 µM, first compound 1 µM
[5] = second compound 0.0316 µM, first compound 3.16 µM
[6] = second compound 0.0316 µM, first compound 10 µM
[7] = second compound 0.1 µM, first compound 0.0316 µM
[8] = second compound 0.1 µM, first compound 0.1 µM
[9] = second compound 0.1 µM, first compound 0.316 µM
[10] = second compound 0.1 µM, first compound 1 µM
[11] = second compound 0.1 µM, first compound 3.16 µM
[12] = second compound 0.1 µM, first compound 10 µM
[13] = second compound 0.316 µM, first compound 0.0316 µM
[14] = second compound 0.316 µM, first compound 0.1 µM
[15] = second compound 0.316 µM, first compound 0.316 µM
[16] = second compound 0.316 µM, first compound 1 µM
[17] = second compound 0.316 µM, first compound 3.16 µM
[18] = second compound 0.316 µM, first compound 10 µM
[19] = second compound 1 µM, first compound 0.0316 µM
[20] = second compound 1 µM, first compound 0.1 µM
[21] = second compound 1 µM, first compound 0.316 µM
[22] = second compound 1 µM, first compound 1 µM
[23] = second compound 1 µM, first compound 3.16 µM
[24] = second compound 1 µM, first compound 10 µM
[25] = second compound 3.16 µM, first compound 0.0316 µM
[26] = second compound 3.16 µM, first compound 0.1 µM
[27] = second compound 3.16 µM, first compound 0.316 µM
[28] = second compound 3.16 µM, first compound 1 µM
[29] = second compound 3.16 µM, first compound 3.16 µM
[30] = second compound 3.16 µM, first compound 10 µM
[31] = second compound 10 µM, first compound 0.0316 µM
[32] = second compound 10 µM, first compound 0.1 µM
[33] = second compound 10 µM, first compound 0.316 µM
[34] = second compound 10 µM, first compound 1 µM
[35] = second compound 10 µM, first compound 3.16 µM
[36] = second compound 10 µM, first compound 10 µM
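Also: spheroids exposed to the compounds for one week.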
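For viability, T/C in this document: percent of tumor spheroid viability relative to DMSO vehicle control wells.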

## C=CC(=O)N1CCN(c2nc(=O)n(-c3c(C)ccnc3C(C)C)c3nc(-c4c(O)cccc4F)c(F)cc23)C(C)C1 (stereo not given) + Cc1cnc(CNC(=O)c2c(=O)c3ccc(N4CCCN(C)CC4)nc3n3c2sc2ccccc23)cn1
Second compound 0.0316 µM
  IC50: > 10000 nM
Second compound 0.1 µM
  IC50: > 10000 nM
Second compound 0.316 µM
  IC50: < 31.6 nM
Second compound 1 µM
  IC50: < 31.6 nM
Second compound 3.16 µM
  IC50: < 31.6 nM
Second compound 10 µM
  IC50: < 31.6 nM
[1]
  viability, T/C: 90.5%
[2]
  viability, T/C: 81.3%
[3]
  viability, T/C: 107%
[4]
  viability, T/C: 105%
[5]
  viability, T/C: 99.1%
[6]
  viability, T/C: 76.9%
[7]
  viability, T/C: 60.9%
[8]
  viability, T/C: 66%
[9]
  viability, T/C: 68.5%
[10]
  viability, T/C: 67.5%
[11]
  viability, T/C: 79.5%
[12]
  viability, T/C: 47.3%
[13]
  viability, T/C: 35.9%
[14]
  viability, T/C: 29.3%
[15]
  viability, T/C: 33.8%
[16]
  viability, T/C: 31.1%
[17]
  viability, T/C: 33.6%
[18]
  viability, T/C: 24%
[19]
  viability, T/C: 23.4%
[20]
  viability, T/C: 30.9%
[21]
  viability, T/C: 33.2%
[22]
  viability, T/C: 24.1%
[23]
  viability, T/C: 22.6%
[24]
  viability, T/C: 28.3%
[25]
  viability, T/C: 34.5%
[26]
  viability, T/C: 31.4%
[27]
  viability, T/C: 19.4%
[28]
  viability, T/C: 27%
[29]
  viability, T/C: 29.8%
[30]
  viability, T/C: 32.3%
[31]
  viability, T/C: 0.14%
[32]
  viability, T/C: 0.2%
[33]
  viability, T/C: 0.24%
[34]
  viability, T/C: 0.2%
[35]
  viability, T/C: 0.2%
[36]
  viability, T/C: 1.55%

## CC(=O)O[C@H]1C(=O)[C@@]2(C)[C@H]([C@H](OC(=O)c3ccccc3)[C@]3(O)C[C@H](OC(=O)[C@H](O)[C@@H](NC(=O)c4ccccc4)c4ccccc4)C(C)=C1C3(C)C)[C@]1(OC(C)=O)CO[C@@H]1C[C@@H]2O + CN(C)c1ccc(Nc2c3ccc(NC(=O)CCN4CCCC4)cc3nc3cc(NC(=O)CCN4CCCC4)ccc23)cc1
Second compound 0.0316 µM
  IC50: < 31.6 nM
Second compound 0.1 µM
  IC50: < 31.6 nM
Second compound 0.316 µM
  IC50: < 31.6 nM
Second compound 1 µM
  IC50: < 31.6 nM
Second compound 3.16 µM
  IC50: < 31.6 nM
Second compound 10 µM
  IC50: < 31.6 nM
[1]
  viability, T/C: 7.7%
[2]
  viability, T/C: 3.78%
[3]
  viability, T/C: 3.71%
[4]
  viability, T/C: 2.86%
[5]
  viability, T/C: 3.18%
[6]
  viability, T/C: 3.65%
[7]
  viability, T/C: 6.67%
[8]
  viability, T/C: 3.1%
[9]
  viability, T/C: 3.16%
[10]
  viability, T/C: 4.15%
[11]
  viability, T/C: 3.73%
[12]
  viability, T/C: 3.82%
[13]
  viability, T/C: 8.31%
[14]
  viability, T/C: 4.86%
[15]
  viability, T/C: 3.98%
[16]
  viability, T/C: 3.68%
[17]
  viability, T/C: 3.77%
[18]
  viability, T/C: 3.72%
[19]
  viability, T/C: 10.4%
[20]
  viability, T/C: 4.09%
[21]
  viability, T/C: 3.56%
[22]
  viability, T/C: 3.3%
[23]
  viability, T/C: 3.31%
[24]
  viability, T/C: 3.95%
[25]
  viability, T/C: 5.71%
[26]
  viability, T/C: 3.67%
[27]
  viability, T/C: 3.71%
[28]
  viability, T/C: 3.88%
[29]
  viability, T/C: 5.32%
[30]
  viability, T/C: 5.08%
[31]
  viability, T/C: 6.02%
[32]
  viability, T/C: 4.19%
[33]
  viability, T/C: 2.67%
[34]
  viability, T/C: 4.93%
[35]
  viability, T/C: 3.01%
[36]
  viability, T/C: 3.27%

## COc1cc(C2c3cc4c(cc3C(OC3OC5COC(C)OC5C(O)C3O)C3COC(=O)C23)OCO4)cc(OC)c1O (stereo not given) + CN(C)c1ccc(Nc2c3ccc(NC(=O)CCN4CCCC4)cc3nc3cc(NC(=O)CCN4CCCC4)ccc23)cc1
Second compound 0.0316 µM
  IC50: 590 nM
Second compound 0.1 µM
  IC50: 641 nM
Second compound 0.316 µM
  IC50: 584 nM
Second compound 1 µM
  IC50: 574 nM
Second compound 3.16 µM
  IC50: 614 nM
Second compound 10 µM
  IC50: < 31.6 nM
[1]
  viability, T/C: 106%
[2]
  viability, T/C: 96.7%
[3]
  viability, T/C: 73%
[4]
  viability, T/C: 30.5%
[5]
  viability, T/C: 13.4%
[6]
  viability, T/C: 8.11%
[7]
  viability, T/C: 106%
[8]
  viability, T/C: 94.4%
[9]
  viability, T/C: 77.1%
[10]
  viability, T/C: 33.1%
[11]
  viability, T/C: 13.5%
[12]
  viability, T/C: 9.28%
[13]
  viability, T/C: 100%
[14]
  viability, T/C: 111%
[15]
  viability, T/C: 73.3%
[16]
  viability, T/C: 28.8%
[17]
  viability, T/C: 13%
[18]
  viability, T/C: 7.51%
[19]
  viability, T/C: 88.4%
[20]
  viability, T/C: 97.5%
[21]
  viability, T/C: 72.5%
[22]
  viability, T/C: 28.2%
[23]
  viability, T/C: 13.1%
[24]
  viability, T/C: 7.5%
[25]
  viability, T/C: 88.5%
[26]
  viability, T/C: 83.8%
[27]
  viability, T/C: 78.8%
[28]
  viability, T/C: 28.8%
[29]
  viability, T/C: 14.4%
[30]
  viability, T/C: 10.3%
[31]
  viability, T/C: 18.7%
[32]
  viability, T/C: 24%
[33]
  viability, T/C: 22.1%
[34]
  viability, T/C: 11.4%
[35]
  viability, T/C: 10.1%
[36]
  viability, T/C: 8.35%

## CC1COCCN1c1cc(-c2ccnn2C)c2ccnc(-c3ccn[nH]3)c2n1 (stereo not given) + CN(C)c1ccc(Nc2c3ccc(NC(=O)CCN4CCCC4)cc3nc3cc(NC(=O)CCN4CCCC4)ccc23)cc1
Second compound 0.0316 µM
  IC50: 37.2 nM
Second compound 0.1 µM
  IC50: 32.2 nM
Second compound 0.316 µM
  IC50: < 31.6 nM
Second compound 1 µM
  IC50: < 31.6 nM
Second compound 3.16 µM
  IC50: < 31.6 nM
Second compound 10 µM
  IC50: < 31.6 nM
[1]
  viability, T/C: 57.1%
[2]
  viability, T/C: 6.61%
[3]
  viability, T/C: 3.14%
[4]
  viability, T/C: 3%
[5]
  viability, T/C: 4.69%
[6]
  viability, T/C: 8.34%
[7]
  viability, T/C: 50.8%
[8]
  viability, T/C: 7.66%
[9]
  viability, T/C: 2.82%
[10]
  viability, T/C: 3.38%
[11]
  viability, T/C: 5.04%
[12]
  viability, T/C: 7.27%
[13]
  viability, T/C: 46.7%
[14]
  viability, T/C: 6.13%
[15]
  viability, T/C: 3.67%
[16]
  viability, T/C: 3.77%
[17]
  viability, T/C: 5.39%
[18]
  viability, T/C: 7.84%
[19]
  viability, T/C: 44%
[20]
  viability, T/C: 7.67%
[21]
  viability, T/C: 3.43%
[22]
  viability, T/C: 3.61%
[23]
  viability, T/C: 4.71%
[24]
  viability, T/C: 8.81%
[25]
  viability, T/C: 27.2%
[26]
  viability, T/C: 6.07%
[27]
  viability, T/C: 3.25%
[28]
  viability, T/C: 3.51%
[29]
  viability, T/C: 5.21%
[30]
  viability, T/C: 7.01%
[31]
  viability, T/C: 12.7%
[32]
  viability, T/C: 7.23%
[33]
  viability, T/C: 4.41%
[34]
  viability, T/C: 3.59%
[35]
  viability, T/C: 4.61%
[36]
  viability, T/C: 2.61%

## CC(=O)O[C@H]1C(=O)[C@@]2(C)[C@H]([C@H](OC(=O)c3ccccc3)[C@]3(O)C[C@H](OC(=O)[C@H](O)[C@@H](NC(=O)c4ccccc4)c4ccccc4)C(C)=C1C3(C)C)[C@]1(OC(C)=O)CO[C@@H]1C[C@@H]2O + Cc1[nH]c2ccc(F)cc2c1-c1nc2c3cccnc3c3ncccc3c2[nH]1
Second compound 0.0316 µM
  IC50: 148 nM
Second compound 0.1 µM
  IC50: 176 nM
Second compound 0.316 µM
  IC50: 240 nM
Second compound 1 µM
  IC50: 117 nM
Second compound 3.16 µM
  IC50: < 31.6 nM
Second compound 10 µM
  IC50: < 31.6 nM
[1]
  viability, T/C: 100%
[2]
  viability, T/C: 67.2%
[3]
  viability, T/C: 16.9%
[4]
  viability, T/C: 3.76%
[5]
  viability, T/C: 1%
[6]
  viability, T/C: 0.76%
[7]
  viability, T/C: 90.5%
[8]
  viability, T/C: 77.2%
[9]
  viability, T/C: 21.5%
[10]
  viability, T/C: 5.55%
[11]
  viability, T/C: 0.13%
[12]
  viability, T/C: 0.12%
[13]
  viability, T/C: 78.4%
[14]
  viability, T/C: 70.6%
[15]
  viability, T/C: 43.7%
[16]
  viability, T/C: 5.11%
[17]
  viability, T/C: 0.81%
[18]
  viability, T/C: 0.08%
[19]
  viability, T/C: 52.8%
[20]
  viability, T/C: 58.1%
[21]
  viability, T/C: 16.4%
[22]
  viability, T/C: 1.87%
[23]
  viability, T/C: 0.21%
[24]
  viability, T/C: 0.41%
[25]
  viability, T/C: 3.83%
[26]
  viability, T/C: 6.17%
[27]
  viability, T/C: 8.48%
[28]
  viability, T/C: 0.24%
[29]
  viability, T/C: 0.53%
[30]
  viability, T/C: 0.46%
[31]
  viability, T/C: 1.53%
[32]
  viability, T/C: 1.57%
[33]
  viability, T/C: 4.36%
[34]
  viability, T/C: 0.21%
[35]
  viability, T/C: 0.84%
[36]
  viability, T/C: 1.07%
